Experimental data published in patent US20150094225A1, “METHOD OF OBTAINING INFORMATION FOR IDENTIFYING TUMOR CELL UNDERGOING EPITHELIAL-MESENCHYMAL TRANSITION IN SAMPLE, METHOD OF IDENTIFYING TUMOR CELL UNDERGOING EPITHELIAL-MESENCHYMAL TRANSITION IN SAMPLE, METHOD OF DIAGNOSING SUBJECT HAVING TUMOR CELL UNDERGOING EPITHELIAL-MESENCHYMAL TRANSITION AND …” (Samsung Electronics Co., Ltd., priority 2013, published 2015).
Read-outs that look alike come from different tables or passages of the source.

What was measured:
Assay type in all cases: cell-based
[1] = test system: breast cancer cells (MCF7); test: western blotting of EMT-induced MCF7 cells cultured in TSA- or CoCl2-containing medium
[2] = test system: breast cancer cells (MCF7); test: RT-PCR of EMT-induced MCF7 cells cultured in medium including TSA, SB or CoCl2; conditions: for expression of EpCAM / expression of Twist / expression of snail: 0.5 μM TSA or 2.5 mM SB
[3] = test system: lung cancer cells (NCI-1650); test: western blotting of EMT-induced NCI-1650 cells cultured in TSA-containing medium; conditions: NCI-1650, western blotting, 0.5 μM TSA, one day
[4] = test system: lung cancer cells (NCI-1650); test: RT-PCR of EMT-induced NCI-1650 cells cultured in TSA-containing medium; conditions: NCI-1650, RT-PCR, 0.5 μM TSA, one day
[5] = test system: prostate cancer cells (Du145); test: western blotting and RT-PCR of EMT-induced DU145 cells cultured in medium including TSA, SB or CoCl2
[6] = MCF7, western blotting (FIG. 15: western/RT-PCR not told apart), 0.5 μM TSA or 400 μM CoCl2, one day
[7] = MCF7, RT-PCR, 0.5 μM TSA or 400 μM CoCl2, one day
[8] = MCF7, RT-PCR, 0.5 μM TSA, 2.5 mM SB or 400 μM CoCl2, one day
[9] = DU145, western blotting/RT-PCR, 0.5 μM TSA, 2.5 mM SB or 400 μM CoCl2, one day

SMILES: CC(/C=C/C(=O)NO)=C\[C@@H](C)C(=O)c1ccc(N(C)C)cc1 [TSA, Trichostatin A]
- expression of N-cadherein [1, 6]: gradually increased
- expression of snail [1, 6]: gradually increased
- expression of E-cadherin ([1]; MCF7, western blotting, 0.5 μM TSA, cultured one day): decreased
- expression of ACACA [2, 7]: increased
- expression of PPARγ [2, 7]: decreased
- expression of SCD1 [2, 7]: increased
- expression of EpCAM ([2]; MCF7, RT-PCR, one day): decreased
- expression of Twist ([2]; MCF7, RT-PCR, one day): increased
- expression of snail ([2]; MCF7, RT-PCR, one day): increased
- expression of ACOT1 [2, 8]: decreased
- expression of PTPLB [2, 8]: decreased
- expression of N-cadherin ([2]; MCF7, RT-PCR, 0.5 μM TSA, one day): increased
- expression of N-cadherein [3]: gradually increased
- expression of Vimentin [3]: gradually increased
- expression of snail [3]: gradually increased
- expression of ACOT1 [4]: decreased
- expression of PTPLB [4]: decreased
- expression of SCD1 [4]: increased
- expression of ACOT1 [5, 9]: decreased
- expression of EpCAM [5, 9]: increased
- expression of PTPLB [5, 9]: decreased
- expression of SCD1 [5, 9]: increased
- expression of snail [5, 9]: increased

SMILES: CCCC(=O)[O-].[Na+] [SB, sodium butyrate]
- expression of EpCAM ([2]; MCF7, RT-PCR, one day): decreased
- expression of Twist ([2]; MCF7, RT-PCR, one day): increased
- expression of snail ([2]; MCF7, RT-PCR, one day): increased
- expression of ACOT1 [2, 8]: decreased
- expression of PTPLB [2, 8]: decreased
- expression of ACOT1 [5, 9]: decreased
- expression of EpCAM [5, 9]: increased
- expression of PTPLB [5, 9]: decreased
- expression of SCD1 [5, 9]: increased
- expression of snail [5, 9]: increased

SMILES: [Cl-].[Cl-].[Co+2] [CoCl2]
- expression of HIF-1α [1]: gradually increased
- expression of N-cadherein [1]: gradually increased
- expression of snail [1]: gradually increased
- expression of ACACA [2]: decreased
- expression of ACOT1 [2]: decreased
- expression of FASN [2]: decreased
- expression of PPARγ [2]: decreased
- expression of PTPLB [2]: decreased
- expression of SCD1 [2]: increased
- expression of ACOT1 [5]: decreased
- expression of EpCAM [5]: increased
- expression of PTPLB [5]: decreased
- expression of SCD1 [5]: increased
- expression of snail [5]: increased
